Data published in patent publication US8952059B2, “Acetyl L-carnitine for the preparation of a medicament for the prevention of painful peripheral neuropathy in patients with type 2 diabetes” (Sigma-Tau Industrie Farmaceutiche Riunite S.P.A., priority 2005, dated 2015).
Like-named read-outs stand apart in the source and are kept apart here.

Assays:
[1] = tested on: diabetic patients suffering from neuropathy; conditions: cited from earlier work
[2] = tested on: patients with type 2 diabetes (symptoms of painful peripheral neuropathy); assay: Clinical Trial BM 14329: multicentre, randomised, double-blind, placebo-controlled, 52 weeks; format: in vivo, human; conditions: for Patients with symptom: Pain / Patients with symptom: Pain, hyperaesthesia, paraesthesia: 3.0 g/day; for Patients with symptom: Pain: n = 217 type 2 diabetes patients without the symptom at basal; for Patients with symptom: Pain, hyperaesthesia, paraesthesia: n = 217 type 2 diabetes patients without the symptoms at basal
Method: (§1) A multicentre, randomised, double-blind, placebo-controlled clinical trial of 52 weeks' duration was conducted in patients with type 2 diabetes suffering from diabetic peripheral neuropathy.
(§2) The patients were treated with acetyl L-carnitine at a dose of 0.5 grams or 1 gram, three times daily, or with placebo for 52 weeks.
(§3) The patients recruited into the trial were patients of male and female sex and were aged from 18 to 70 years, in whom diabetes had been diagnosed more than one year earlier and presenting HbA1c greater than 5.9%.
(§4) After 12, 26 and 52 weeks of treatment, the presence and intensity of pain, paraesthesia and hyperaesthesia, amongst other variables, were assessed as characteristic symptoms of painful peripheral neuropathy in patients who at the time of recruitment presented no such symptoms.

[3] = tested on: patients with type 2 diabetes (symptoms of painful peripheral neuropathy); assay: Clinical Trial BM 14330: multicentre, randomised, double-blind, placebo-controlled, same characteristics as Example 1; format: in vivo, human; conditions: for Patients with symptom: Pain / Patients with symptom: Pain, hyperaesthesia, paraesthesia: 3.0 g/day; for Patients with symptom: Pain: n = 181 type 2 diabetes patients without the symptom at basal; for Patients with symptom: Pain, hyperaesthesia, paraesthesia: n = 181 type 2 diabetes patients without the symptoms at basal
Method: as §1, §2, §3, §4
A multicentre randomised, double-blind, placebo-controlled clinical trial was conducted with the same characteristics as the clinical trial described in Example 1.

## CC(=O)O[C@H](CC(=O)[O-])C[N+](C)(C)C [Acetyl L-carnitine, acetyl L-carnitine]
[1]; diabetic patients suffering from neuropathy, Drugs 1997 September: 54 (3) 414-421
  Nerve conduction velocity: improves nerve conduction velocity
[1]; diabetic patients suffering from polyneuropathy, Journal of the Neurological Sciences, 1997, Suppl. to Vol 150
  Nerve conduction velocity: improves nerve conduction velocity
[1]; patients suffering from stabilised diabetic neuropathy, Diabetes Care, 2005, 28(1): 89-94
  Relief of pain symptoms and regeneration of nerve fibres: useful for relieving the pain symptoms and for regenerating nerve fibres
[2]; 12 weeks
  Patients with symptom: Pain: 17.1%
  Patients with symptom: Pain, hyperaesthesia, paraesthesia: 35.5%
[2]; 26 weeks
  Patients with symptom: Pain: 20.3%
  Patients with symptom: Pain, hyperaesthesia, paraesthesia: 38.6%
[2]; 52 weeks
  Patients with symptom: Pain: 29.5%
  Patients with symptom: Pain, hyperaesthesia, paraesthesia: 47.5%
[2]; patients without such symptoms at entry, only in type 2 diabetes and at the higher dose
  Prevention of symptoms typical of diabetic painful peripheral neuropathy (pain, hyperaesthesia, paraesthesia): capable not only of curing but also of preventing the symptoms
[2]; summary of Tables 1-3, 3 grams/day
  Ability to prevent the onset of symptoms associated with diabetic painful peripheral neuropathy: statistically significant ability to prevent the onset of symptoms
[2]; treatment for 26 or 52 weeks, effect better only in patients with type 2 diabetes
  Curative effect on symptoms of diabetic peripheral neuropathy already present at the start of the trial: capable of curing the symptoms of diabetic peripheral neuropathy
[3]; 12 weeks
  Patients with symptom: Pain: 27.6%
  Patients with symptom: Pain, hyperaesthesia, paraesthesia: 42.5%
[3]; 52 weeks
  Patients with symptom: Pain: 35.9%
  Patients with symptom: Pain, hyperaesthesia, paraesthesia: 48.1%
[3]; Table 5, head prints 12 weeks
  Patients with symptom: Pain: 28.7%
  Patients with symptom: Pain, hyperaesthesia, paraesthesia: 43.1%
[3]; summary of Tables 4-6, 3 grams/day
  Ability to prevent the onset of symptoms associated with diabetic painful peripheral neuropathy: statistically significant ability to prevent the onset of symptoms
